One assay concerns the target T1, Aromataseaktivität (Rattus norvegicus, UniProt P22443).
T1 construct: Infantile weibliche Ratten reagieren auf PMSG (Pregnant Mare's Serum Gonadotropin)-Behandlung mit einheitlich erhöhter Steroidsynthese; from tissue; host or cells: living infantile female rats (in vivo); serum estradiol measured by radioimmunoassay
T1 sequence (P22443 1-508): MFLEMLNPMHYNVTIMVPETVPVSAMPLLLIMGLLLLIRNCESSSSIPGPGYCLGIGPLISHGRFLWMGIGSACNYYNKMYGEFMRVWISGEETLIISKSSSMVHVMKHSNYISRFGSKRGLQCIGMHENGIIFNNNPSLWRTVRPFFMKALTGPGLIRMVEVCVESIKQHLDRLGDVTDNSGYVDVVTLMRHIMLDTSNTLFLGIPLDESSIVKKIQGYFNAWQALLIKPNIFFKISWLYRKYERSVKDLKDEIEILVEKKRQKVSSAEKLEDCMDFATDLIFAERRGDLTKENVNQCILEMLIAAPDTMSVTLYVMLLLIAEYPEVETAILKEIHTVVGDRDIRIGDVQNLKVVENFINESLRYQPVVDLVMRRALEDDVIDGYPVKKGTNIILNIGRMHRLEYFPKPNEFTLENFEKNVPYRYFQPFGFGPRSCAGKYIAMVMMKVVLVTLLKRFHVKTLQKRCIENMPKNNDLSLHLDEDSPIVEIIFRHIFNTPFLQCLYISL
Put plainly: PMSG test: serum estradiol in PMSG-pretreated infantile female rats (radioimmunoassay). The assay is classed as in vivo, Ratte. To be noted: for Östradiol-Konzentration: peripheral serum, PMSG-pretreated rat, mean ± SD, n=10. As to the method:
Infantile weibliche Ratten reagieren auf PMSG (Pregnant Mare's Serum Gonadotropin)-Behandlung mit einheitlich erhöhter Steroidsynthese. Die Aromataseaktivität kann durch die Beeinflussung der PMSG-stimulierten Ostrogenbildung gemessen werden.
Im sogenannten PMSG-Test werden 21 Tage alte weibliche Ratten alle 2 Tage insgesamt 7 mal mit je 100 I.U. PMSG subkutan vorbehandelt. 1 Stunde vor und 8 Stunden nach der letzten PMSG-Applikation (d12) erhalten die Tiere die Testsubstanz in 0,1 ml Benzylbenzoat/Rizinusöl (1+9) durch subkutane Injektion. Die Kontrolltiere erhalten nur das Vehikel. 24 Stunden nach der letzten PMSG-Applikation werden die Tiere getötet. Im Serum wird Östradiol radioimmunologisch geprüft. Für jede Gruppe von 10 Tieren wird der Mittelwert der Östradiolkonzentration in nMol/1 mit der Standardabweichung errechnet. Die Signifikanzen der Unterschiede zur Kontrollgruppe werden durch die Varianzanalyse geprüft.
Zur Ermittlung der relativen Wirkungsstärke der zu testenden Substanz im Vergleich zu der Standardsubstanz wird die Regressions- und Kovarianzanalyse durchgeführt. Ferner wird die prozentuale Hemmung gegen die PMSG-Kontrolle berechnet.

The next assay has as its system Östruszyklus der Ratte. Put plainly: Influence of aromatase inhibitors on the estrous cycle of the rat (Allen-Doisy smear technique). It is filed as in vivo, Ratten (SPF-Wistar). From the text: In einem weiteren Test wird der Einfluß von Aromatasehemmern auf den Östruszyklus der Ratte bestimmt.
Die Substanzen, die die Östrogenbiosynthese bzw. die Wirkung von Östrogenen hemmen, führen zu einer Störung des Östruszyklus bei Nagern.
Verwendet werden weibliche Ratten (SPF-Wistar) von ca. 180 g Körpergewicht. Pro Gruppe werden 10 Tiere eingesetzt. Der Zyklus wird mittels der Allen-Doisy-Abstrichtechnik täglich untersucht. Es werden zwei aufeinanderfolgende Zyklen verfolgt. Nur Tiere mit einem regelmäßigen 4-Tage-Zyklus kommen in den Versuch. Am Tage des Metöstrus werden die Tiere einmal mit der Testsubstanz (20 mg/Tier) subcutan behandelt. Die Testsubstanz wird dabei in einer 0.9%igen Kochsalzlösung mit Myrj-53^(R) (0.085%) suspendiert (0,5 ml/Dosis). Die Kontrolltiere werden nicht behandelt. Der Versuch wird beendet. wenn alle behandelten Tiere wieder normale Zyklen aufweisen.

The structures appear in SMILES notation.

For `C[C@]12CCC(=O)C(O)=C1CC[C@@H]1[C@@H]2CC[C@]2(C)C(=O)CC[C@@H]12` [A, 4-Hydroxy-4-androsten-3,17-dion], the “Dosis, mit der eine Hemmung der Östradiol-Konzentration beobachtet wird” value on Aromataseaktivität (lowest dose with inhibition, given 2 x s.c.) is 1,0 mg. Besides, the Östradiol-Konzentration on Aromataseaktivität (dose 0,1 mg/Tier 2 x s.c.) is listed as 3,98 ± 1,12 nMol/l; on Aromataseaktivität (dose 0,3 mg/Tier 2 x s.c.) it was 3,84 ± 0,84 nMol/l; at Aromataseaktivität (dose 1,0 mg/Tier 2 x s.c.), 1,94 ± 0,62 nMol/l; on Aromataseaktivität (dose 3,0 mg/Tier 2 x s.c.), 0,98 ± 0,19 nMol/l.
Take `CC(=O)O[C@@H](C)[C@H]1CC(=O)[C@@]2(C)CC[C@H]3[C@@H](CCC4=CC(=O)C=C(C)[C@@]43C)[C@H]12` [B]: the Östradiol-Konzentration on Aromataseaktivität (dose 0,1 mg/Tier 2 x s.c.) is given as 2,11 ± 0,39 nMol/l; at Aromataseaktivität (dose 0,3 mg/Tier 2 x s.c.), 0,62 ± 0,13 nMol/l; on Aromataseaktivität (dose 1,0 mg/Tier 2 x s.c.), 0,54 ± 0,07 nMol/l; on Aromataseaktivität (dose 3,0 mg/Tier 2 x s.c.), 0,36 ± 0,06 nMol/l.
In the case of `CCCC(=O)OC(C)C1CC(=O)C2(C)CCC3C(CCC4=CC(=O)C=C(C)C43C)C12` (stereo not drawn) [C, 15a-(1S-Butyryloxy-ethyl)-1-methyl-androsta-1.4-dien-3,17-dion], the “Dauer der Störung des Zyklus (Durchschnitt)” value with Östruszyklus der Ratte (single s.c. 20 mg/Tier, average) is given as approximately 15 Tage. The “Zykluslänge der meisten behandelten Tiere” value with Östruszyklus der Ratte (single s.c. 20 mg/Tier, untreated animals regular 4-day cycle) is reported as 5-Tage-Zyklus. Further, the “Wirkung auf den Zyklus” value with Östruszyklus der Ratte (single s.c. treatment 20 mg/Tier at metestrus, effect starts right after treatment) is on record as “Störung des Zyklus”.

The record behind these values is patent EP0225272A1, “1-Methyl-15-alpha-alkyl-androsta-1,4-diene-3,17-diones, process for their preparation and pharmaceutical compositions containing them” (SCHERING AKTIENGESELLSCHAFT, priority 1985, dated 1987).
